In patent US20020068274A1, “Novel method for assessing recoding in vitro and in vivo” (priority 2000, published 2002):

How the values were obtained:
transformed cell lines = settings: cited from earlier work
antizyme = settings: cited from earlier work
[1] = target: Ova257-264-specific B3Z hybridoma; test: β-galactosidase-based T hybridoma stimulation assay; set-up: species or system mouse; settings: L-Kb cells infected with rVV at 10 pfu/cell or pulsed with peptide 10^-9 M; FIGS. 4, 5
Source text: FIG. 4. The TK frameshifting element directs expression and in vitro presentation of Ova257-264 that has been shifted to RF+1. The TK frameshifting element was inserted into the SphI site of NP/Ova257-264, shifiting all downstream NP/Ova257-264-encoding sequence, including Ova257-264, into RF+1 (TK-FS). Negative and positive control TK sequences (TK-NC, and TK-IF respectively) were also inserted. L-K^b cells were infected overnight with rVVs expressing these three constructs, along with a negative control VV (VV-NC). […]
Assays for epitope expression based upon use of the B3Z T hybridoma that produces β-galactosidase upon activation, have been described previously (Wherry, et al, J. Immunol 163, no. 7:3735, 1999). […] After overnight incubation, β-galactosidase production was assessed using the fluorogenic substrate methyl umbelliferone-βgalactoside as described by Sanderson and Shastri (Sanderson and N. Shastri, Internal Immunology 158:3227, 1997).
The frameshifting element derived from the mutant (TK-FS), as well as control sequences, in which the G run required for frameshifting was deleted (TK-NC), were tested following insertion into the SphI site of the NP/Ova257-264 construct (see FIG. 2) and recognition of Ova257-264 was monitored. […]

Row | Molecule | growth of transformed cell lines (transformed cell lines) | polyamine levels (antizyme) | antizyme expression (antizyme; via effect on +1 frameshifting) | Kb/Ova257-264-specific recognition (β-galactosidase production by B3Z versus BWZ) [1]
1 | N=C(N)NCCCCN [agmatine] | growth inhibition of transformed cell lines | lowered polyamine levels | capable of stimulating antizyme expression | –
2 | Ova257-264: synthetic version of the H-2Kb-restricted epitope within ovalbumin (ESIINFEK; UniProt P01012 257-264, looked up, fragment) | – | – | – | strong specific response
